{"source": "patent US8637321B2", "about": "“Lipidomics approaches for central nervous system disorders” (priority 2005, dated 2014)", "key": {"[1]": {"conditions": "cited from earlier work; for risk of DM / metabolic effect: patients with schizophrenia; for effect on serum lipids / effects on serum glucose: in vivo; for weight gain, mean increases during the first year of therapy: prospective data"}, "[2]": {"test_system": "patients with schizophrenia", "experiment": "plasma lipid profiling pre- and post-treatment with antipsychotics", "type": "in vivo, human", "from_the_text": "(§1) Fifty male and female patients were recruited in two studies for metabolic profiling (Table VI and Table VII for demographics). Subjects ranged in age from 18 to 60 years and met the following inclusion criteria: a) DSM-IV criteria for schizophrenia, schizophreniform disorder, or schizoaffective disorder; b) newly hospitalized for a psychotic exacerbation in the setting of no antipsychotic treatment for at least 3 weeks prior to admission; and c) provided signed informed consent. Patients with psychoses due to psychoactive substance abuse or an underlying medical condition were excluded. Patients who were receiving treatment for diabetes mellitus or hyperlipidemia were also excluded.\nThe choice and dose of antipsychotic medication was based on the doctor's judgment. […] The treatment duration was 2-3 weeks. […] The mean duration of therapy was about 2 weeks for all 3 drugs in Study II. The drug groups were otherwise generally similar in severity of disease and physical characteristics (Table VI and Table VII). The 2-3 week duration permits the study of acute early effects.\nAll blood samples were drawn from subjects in the early morning after overnight fasting. Blood was drawn into vacutainer tubes containing sodium heparin, immediately placed on ice, and within 10 minutes, the blood was centrifuged and the plasma was transferred into polypropylene tubes and stored in a −30° C. freezer. All baseline samples were drawn prior to starting antipsychotic treatment in the study. If a patient had received a dose of an antipsychotic during the referral process (e.g., because of agitation when initially seen in a local emergency department), drawing of baseline plasma samples was delayed for 2-3 days. Follow-up samples were drawn after patients had received an average of 2-3 weeks of acute antipsychotic treatment.\nA comprehensive assessment of plasma lipid profiles was performed (Lipomics Technologies, West Sacramento, Calif.) according to established methods (Watkins, et al. (2002) J. Lipid Res. 43(11):1809-17). Quantitative measurements of fatty acids in various lipid classes were determined as nmol fatty acid/gram of plasma. Lipid classes included cholesterol esters (CE), free cholesterol (FC), triacylglycerols (TG), diacylglycerols (DG), free fatty acids (FA), lysophosphatidylcholine (LY), phosphatidylcholine (PC), and phosphatidylethanolamine (PE). Lipid metabolites are identified by the lipid class and the fatty acid moiety. In the context of this invention, fatty acids are identified first by the number of carbons in the molecule (e.g., 20), the number of double bonds in the molecule (e.g., 4), and lastly the position of the double bonds (e.g., n6). To illustrate, PC20:4n6 denotes a phosphatidylcholine molecule containing a 20 carbon fatty acid with 4 double bonds at the n6 position.\nSignificant differences between pre- and post-drug treatment were assessed by paired t-tests. Evaluation of response to drug was assessed by two-way ANOVA. All statistics were done using R with the following functions: t.test, anova, prcomp, and g/m (Team RDC (2005) R: A language and environment for statistical computing. R Foundation for Statistical Computing). Before beginning statistical analyses, change detection was used to determine if observed signals were greater than that which could be expected by chance (noise). The chance distribution of p-values was determined by permuting the outcome groupings (Golub, et al. (1999) Science 286(5439):531-7). Briefly, P values for the appropriate comparison were calculated for each metabolite using a Student's t-test. The metabolites were ranked by p value from smallest to largest. The log of the rank versus the log of the p value for each comparison of interest was plotted and is represented by a colored line. The distribution of p values expected by chance at each rank is indicated by the shaded area. […]"}, "[3]": {"test_system": "patients with schizophrenia", "experiment": "Clinical Global Impressions (CGI) Scale psychopathology assessment", "type": "in vivo, human", "conditions": "means and standard error; for CGI Affective, Post / CGI Negative, Post / CGI Positive, Post: CGI Scale 1 to 7, higher scores greater severity; for CGI Change, Post: overall global change rating at follow-up (1-2 responders, 3-6 non-responders)", "from_the_text": "as §1\nThe choice and dose of antipsychotic medication was based on the doctor's judgment. […] The treatment duration was 2-3 weeks. […] The 2-3 week duration permits the study of acute early effects.\nPsychopathology was assessed on the Clinical Global Impressions (CGI) Scale at baseline and at the time of follow-up blood draws. Scores for the CGI Scale can range from 1 to 7, with higher scores indicating greater severity of illness (Guy (1975) ECDEU Assessment Manual for Psychopharmacology: Publication ADM 76-338. Washington, D.C.: US Department of Health, Education, and Welfare). An overall global change rating was also made at the time of the follow-up blood draw."}, "[4]": {"conditions": "Study I, plasma, post-treatment vs pre-treatment"}, "[5]": {"conditions": "Study II, plasma, post vs pre-treatment"}, "[6]": {"conditions": "plasma, mole percentage data, post treatment compared with pretreatment"}, "[7]": {"conditions": "plasma, total lipid class data (nmol/g sample), post treatment compared with pretreatment"}, "[8]": {"conditions": "Study I, after 2-3 weeks treatment"}, "[9]": {"conditions": "Study II, about 2 weeks treatment"}}, "data": [{"smiles": "O=C(CCCN1CCC(O)(c2ccc(Cl)cc2)CC1)c1ccc(F)cc1", "note": "[haloperidol]", "values": [{"measurement": "risk of DM / metabolic effect", "setting": "[1]", "result": "metabolically neutral"}]}, {"smiles": "O=C1CCc2ccc(OCCCCN3CCN(c4cccc(Cl)c4Cl)CC3)cc2N1", "note": "[Aripiprazole, aripiprazole]", "values": [{"measurement": "PE class concentration", "setting": "[2]; [4]", "result": "increased"}, {"measurement": "fatty acid concentrations", "setting": "[2]; [4]", "result": "very little change"}, {"measurement": "lipid changes overall", "setting": "[2]; [4]", "result": "Minimal significant lipid changes"}, {"measurement": "n7 and n9 free fatty acids", "setting": "[2]; [4]", "result": "no change"}, {"measurement": "total lipid classes other than PE", "setting": "[2]; [4]", "result": "no other total lipid class changes"}, {"measurement": "lipid changes overall", "setting": "[2]; Study II (replication set), plasma, post vs pre-treatment", "result": "minimal lipid changes"}, {"measurement": "fatty acid concentrations", "setting": "[2]; [5]", "result": "very little change"}, {"measurement": "other lipid classes (than PE)", "setting": "[2]; [5]", "result": "No significant changes"}, {"measurement": "PE concentration", "setting": "[2]; Study II, plasma, post-treatment vs pre-treatment", "result": "increased"}, {"measurement": "plasma fatty acid compositions", "setting": "[2]; patients after treatment", "result": "affected minimally"}, {"measurement": "CE18:0 I/D", "setting": "[2]; [6]", "result": "I"}, {"measurement": "LY22.5n3 I/D", "setting": "[2]; [6]", "result": "I"}, {"measurement": "PC22:5n6 I/D", "setting": "[2]; [6]", "result": "I"}, {"measurement": "SP14:1n5 I/D", "setting": "[2]; [6]", "result": "I"}, {"measurement": "SP18:3n3 I/D", "setting": "[2]; [6]", "result": "I"}, {"measurement": "SPSAT I/D", "setting": "[2]; [6]", "result": "I"}, {"measurement": "TG18:0 I/D", "setting": "[2]; [6]", "result": "I"}, {"measurement": "TG22:2n6 I/D", "setting": "[2]; [6]", "result": "I"}, {"measurement": "PELC I/D", "setting": "[2]; [7]", "result": "I"}, {"measurement": "CGI Affective, Post", "setting": "[3]; [8]", "result": "1.5 ± 0.3"}, {"measurement": "CGI Negative, Post", "setting": "[3]; [8]", "result": "1.3 ± 0.3"}, {"measurement": "CGI Positive, Post", "setting": "[3]; [8]", "result": "2.5 ± 0.3"}, {"measurement": "CGI Change, Post", "setting": "[3]; Study I", "result": "2.5 ± 0.3"}, {"measurement": "CGI Affective, Post", "setting": "[3]; [9]", "result": "1.4 ± 0.2"}, {"measurement": "CGI Negative, Post", "setting": "[3]; [9]", "result": "1.6 ± 0.3"}, {"measurement": "CGI Positive, Post", "setting": "[3]; [9]", "result": "2.5 ± 0.2"}, {"measurement": "CGI Change, Post", "setting": "[3]; Study II", "result": "2.8 ± 0.2"}, {"measurement": "effect on serum lipids", "setting": "[1]", "result": "lipid-neutral"}, {"measurement": "effects on serum glucose", "setting": "[1]", "result": "minimal effects"}]}, {"smiles": "O=C1Cc2cc(CCN3CCN(c4nsc5ccccc45)CC3)c(Cl)cc2N1", "note": "[ziprasidone]", "values": [{"measurement": "effect on serum lipids", "setting": "[1]", "result": "lipid-neutral"}, {"measurement": "effects on serum glucose", "setting": "[1]", "result": "minimal effects"}]}, {"smiles": "Cc1cc2c(s1)Nc1ccccc1N=C2N1CCN(C)CC1", "note": "[Olanzapine, olanzapine]", "values": [{"measurement": "CE18:3n3 I/D", "setting": "[2]; [6]", "result": "I"}, {"measurement": "CE18:3n6 I/D", "setting": "[2]; [6]", "result": "I"}, {"measurement": "CE20:3n6 I/D", "setting": "[2]; [6]", "result": "I"}, {"measurement": "CE20:5n3 I/D", "setting": "[2]; [6]", "result": "I"}, {"measurement": "FA18:0 I/D", "setting": "[2]; [6]", "result": "I"}, {"measurement": "FA20:4n6 I/D", "setting": "[2]; [6]", "result": "I"}, {"measurement": "FA22.1n9 I/D", "setting": "[2]; [6]", "result": "I"}, {"measurement": "FASAT I/D", "setting": "[2]; [6]", "result": "I"}, {"measurement": "LY20:3n6 I/D", "setting": "[2]; [6]", "result": "I"}, {"measurement": "LY20:3n9 I/D", "setting": "[2]; [6]", "result": "I"}, {"measurement": "LY20:4n3 I/D", "setting": "[2]; [6]", "result": "I"}, {"measurement": "LY20:5n3 I/D", "setting": "[2]; [6]", "result": "I"}, {"measurement": "PC18:0 I/D", "setting": "[2]; [6]", "result": "I"}, {"measurement": "PC18:1n9 I/D", "setting": "[2]; [6]", "result": "I"}, {"measurement": "PC20:2n6 I/D", "setting": "[2]; [6]", "result": "I"}, {"measurement": "PC20:3n6 I/D", "setting": "[2]; [6]", "result": "I"}, {"measurement": "PC20:3n9 I/D", "setting": "[2]; [6]", "result": "I"}, {"measurement": "PC20:4n3 I/D", "setting": "[2]; [6]", "result": "I"}, {"measurement": "PC20:5n3 I/D", "setting": "[2]; [6]", "result": "I"}, {"measurement": "PC22:0 I/D", "setting": "[2]; [6]", "result": "I"}, {"measurement": "PC22:4n6 I/D", "setting": "[2]; [6]", "result": "I"}, {"measurement": "PC.n9 I/D", "setting": "[2]; [6]", "result": "I"}, {"measurement": "PE18:3n6 I/D", "setting": "[2]; [6]", "result": "I"}, {"measurement": "PE20:3n6 I/D", "setting": "[2]; [6]", "result": "I"}, {"measurement": "PE20:3n9 I/D", "setting": "[2]; [6]", "result": "I"}, {"measurement": "PE20:5n3 I/D", "setting": "[2]; [6]", "result": "I"}, {"measurement": "PE22:5n6 I/D", "setting": "[2]; [6]", "result": "I"}, {"measurement": "SP14:0 I/D", "setting": "[2]; [6]", "result": "I"}, {"measurement": "SP20:3n6 I/D", "setting": "[2]; [6]", "result": "I"}, {"measurement": "SPSAT I/D", "setting": "[2]; [6]", "result": "I"}, {"measurement": "TG14:0 I/D", "setting": "[2]; [6]", "result": "I"}, {"measurement": "TG20:1n9 I/D", "setting": "[2]; [6]", "result": "I"}, {"measurement": "TG20:3n6 I/D", "setting": "[2]; [6]", "result": "I"}, {"measurement": "TG20:4n3 I/D", "setting": "[2]; [6]", "result": "I"}, {"measurement": "FCLC I/D", "setting": "[2]; [7]", "result": "I"}, {"measurement": "PCLC I/D", "setting": "[2]; [7]", "result": "I"}, {"measurement": "PELC I/D", "setting": "[2]; [7]", "result": "I"}, {"measurement": "TGLC I/D", "setting": "[2]; [7]", "result": "I"}, {"measurement": "CGI Affective, Post", "setting": "[3]; [8]", "result": "1.5 ± 0.2"}, {"measurement": "CGI Negative, Post", "setting": "[3]; [8]", "result": "2.2 ± 0.3"}, {"measurement": "CGI Positive, Post", "setting": "[3]; [8]", "result": "2.9 ± 0.2"}, {"measurement": "CGI Change, Post", "setting": "[3]; Study I", "result": "2.8 ± 0.2"}, {"measurement": "CGI Affective, Post", "setting": "[3]; [9]", "result": "1.2 ± 0.2"}, {"measurement": "CGI Negative, Post", "setting": "[3]; [9]", "result": "1 ± 0"}, {"measurement": "CGI Positive, Post", "setting": "[3]; [9]", "result": "2.4 ± 0.2"}, {"measurement": "CGI Change, Post", "setting": "[3]; Study II", "result": "3 ± 0.3"}, {"measurement": "risk of DM / metabolic effect", "setting": "[1]", "result": "higher risk"}, {"measurement": "weight gain, mean increases during the first year of therapy", "setting": "[1]", "result": "15.0-26.0 lbs"}]}, {"smiles": "CN1CCN(C2=Nc3cc(Cl)ccc3Nc3ccccc32)CC1", "note": "[clozapine]", "values": [{"measurement": "risk of DM / metabolic effect", "setting": "[1]", "result": "higher risk"}]}, {"smiles": "OCCOCCN1CCN(C2=Nc3ccccc3Sc3ccccc32)CC1", "note": "[quetiapine]", "values": [{"measurement": "effect on serum lipids", "setting": "[1]", "result": "discrepant data"}, {"measurement": "weight gain, mean increases during the first year of therapy", "setting": "[1]", "result": "6.1-12.3 lbs"}]}]}
